According to patent publication US9592221B2, “Antibacterial agents: aryl myxopyronin derivatives” (priority 2012, dated 2017):

Columns and labels:
[1] = test system: Burkholderia pseudomallei Human/Blood/OH/US/1994; experiment: microbe, parasite or virus in culture; format: cell-based; settings: Burkholderia pseudomallei, read-out: MIC B. pseudomallei Human/Blood/OH
[2] = test system: Acinetobacter baumannii ATCC 19606; experiment: MIC, spiral gradient endpoint assay, A. baumannii; format: cell-based; settings: ATCC19606; Acinetobacter baumannii ATCC 19606
[3] = test system: Burkholderia mallei CHN7; experiment: microbe, parasite or virus in culture; format: cell-based; settings: Burkholderia mallei, CHN7, read-out: MIC B. mallei CHN7
[4] = test system: Yersinia pestis C092; experiment: microbe, parasite or virus in culture; format: cell-based; settings: Yersinia pestis, C092, read-out: MIC Y. pestis C092
[5] = test system: Brucella melitensis 16M; experiment: microbe, parasite or virus in culture; format: cell-based; settings: Brucella melitensis, 16M, read-out: MIC B. melitensis 16M
[6] = test system: Francisella tularensis SCHU4; experiment: microbe, parasite or virus in culture; format: cell-based; settings: Francisella tularensis, SCHU4, read-out: MIC F. tularensis SCHU4
[7] = test system: Mycobacterium tuberculosis H37Rv; experiment: MIC, microplate Alamar Blue assay, M. tuberculosis; format: cell-based
[8] = test system: Escherichia coli D21f2tolC; experiment: MIC, spiral gradient endpoint assay, E. coli D21f2tolC; format: cell-based; settings: Escherichia coli, D21F2TOLC, read-out: MIC E. coli D21f2toIC
[9] = target: E. coli RNA polymerase σ^70 holoenzyme (Escherichia coli, UniProt P0A8T7+P0A8V2); experiment: Fluorescence-detected RNA polymerase assay, E. coli RNA polymerase; format: biochemical; settings: read-out: IC50 E. coli RNAP
[10] = target: S. aureus RNA polymerase core enzyme, S. aureus σ^A (Staphylococcus aureus, UniProt P47768+Q2G0N5); experiment: Fluorescence-detected RNA polymerase assay, S. aureus RNA polymerase; format: biochemical; settings: read-out: IC50 S. aureus RNAP
[11] = test system: Bacillus anthracis Vollum 1b; experiment: microbe, parasite or virus in culture; format: cell-based; settings: Bacillus anthracis, VOLLUM1B, read-out: MIC B. anthracis Vollum-1b
[12] = test system: Staphylococcus aureus ATCC 12600; experiment: MIC, spiral gradient endpoint assay, S. aureus ATCC 12600; format: cell-based; settings: ATCC12600; Staphylococcus aureus ATCC 12600
[13] = target: M. tuberculosis RNA polymerase core enzyme, M. tuberculosis σ^A (Mycobacterium tuberculosis, UniProt P9WGY7+P9WGY9); experiment: Fluorescence-detected RNA polymerase assay, M. tuberculosis RNA polymerase; format: biochemical; settings: read-out: IC50 M. tuberculosis RNAP

S. aureus RNA polymerase core enzyme, S. aureus σ^A, sequence (Q2G0N5 whole entry): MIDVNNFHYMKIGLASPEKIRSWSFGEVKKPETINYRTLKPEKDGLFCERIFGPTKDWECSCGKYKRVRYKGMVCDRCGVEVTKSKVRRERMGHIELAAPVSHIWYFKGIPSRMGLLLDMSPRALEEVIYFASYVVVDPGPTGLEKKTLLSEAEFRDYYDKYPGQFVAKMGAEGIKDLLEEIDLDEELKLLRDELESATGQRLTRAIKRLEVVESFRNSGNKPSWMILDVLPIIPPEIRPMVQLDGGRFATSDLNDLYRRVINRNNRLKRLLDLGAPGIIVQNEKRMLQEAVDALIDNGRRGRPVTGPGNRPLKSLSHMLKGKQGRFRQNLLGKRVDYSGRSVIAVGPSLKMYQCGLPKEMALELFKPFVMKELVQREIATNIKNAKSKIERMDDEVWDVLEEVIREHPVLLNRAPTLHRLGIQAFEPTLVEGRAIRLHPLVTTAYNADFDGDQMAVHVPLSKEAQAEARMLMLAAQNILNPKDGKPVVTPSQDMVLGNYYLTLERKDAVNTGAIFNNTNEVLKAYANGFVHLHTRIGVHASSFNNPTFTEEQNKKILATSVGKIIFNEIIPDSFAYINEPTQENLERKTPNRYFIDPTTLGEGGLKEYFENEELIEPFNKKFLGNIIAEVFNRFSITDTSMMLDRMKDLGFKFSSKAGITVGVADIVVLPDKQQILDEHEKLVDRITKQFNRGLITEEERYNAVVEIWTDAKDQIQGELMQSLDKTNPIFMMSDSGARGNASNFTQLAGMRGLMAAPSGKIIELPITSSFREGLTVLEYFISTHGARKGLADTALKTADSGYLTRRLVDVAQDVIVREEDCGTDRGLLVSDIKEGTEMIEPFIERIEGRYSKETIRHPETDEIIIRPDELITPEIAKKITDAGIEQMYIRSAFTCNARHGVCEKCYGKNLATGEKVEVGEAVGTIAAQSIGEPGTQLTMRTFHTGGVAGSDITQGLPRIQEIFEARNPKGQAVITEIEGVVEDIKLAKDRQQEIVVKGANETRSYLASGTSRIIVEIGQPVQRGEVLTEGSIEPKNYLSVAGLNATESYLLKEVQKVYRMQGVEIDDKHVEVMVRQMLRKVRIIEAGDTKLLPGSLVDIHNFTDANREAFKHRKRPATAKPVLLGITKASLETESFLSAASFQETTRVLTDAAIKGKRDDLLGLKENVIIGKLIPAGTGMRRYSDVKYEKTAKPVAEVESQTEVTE
S. aureus RNA polymerase core enzyme, S. aureus σ^A, sequence (Q2FW32 whole entry, further chain): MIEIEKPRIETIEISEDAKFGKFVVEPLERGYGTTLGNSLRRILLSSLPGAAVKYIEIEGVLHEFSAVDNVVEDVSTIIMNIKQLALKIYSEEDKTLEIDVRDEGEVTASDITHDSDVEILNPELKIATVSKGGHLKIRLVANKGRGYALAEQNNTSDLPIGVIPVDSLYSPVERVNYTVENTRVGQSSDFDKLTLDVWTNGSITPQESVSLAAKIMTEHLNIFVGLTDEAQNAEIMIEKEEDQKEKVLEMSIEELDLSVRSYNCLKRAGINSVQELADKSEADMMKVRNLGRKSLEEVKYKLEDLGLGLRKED
S. aureus RNA polymerase core enzyme, S. aureus σ^A, sequence (P0A0J0 whole entry, further chain): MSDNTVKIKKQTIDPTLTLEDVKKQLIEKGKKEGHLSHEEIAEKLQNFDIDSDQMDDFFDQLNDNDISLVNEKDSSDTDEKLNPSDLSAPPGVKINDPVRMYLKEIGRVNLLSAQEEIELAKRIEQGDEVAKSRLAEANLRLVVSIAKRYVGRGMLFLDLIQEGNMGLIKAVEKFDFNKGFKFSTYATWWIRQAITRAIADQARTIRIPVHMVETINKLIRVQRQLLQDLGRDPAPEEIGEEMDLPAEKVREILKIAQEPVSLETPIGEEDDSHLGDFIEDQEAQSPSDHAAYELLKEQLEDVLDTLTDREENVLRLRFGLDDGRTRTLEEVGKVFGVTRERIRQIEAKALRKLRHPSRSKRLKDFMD
S. aureus RNA polymerase core enzyme, S. aureus σ^A, sequence (P47768 whole entry): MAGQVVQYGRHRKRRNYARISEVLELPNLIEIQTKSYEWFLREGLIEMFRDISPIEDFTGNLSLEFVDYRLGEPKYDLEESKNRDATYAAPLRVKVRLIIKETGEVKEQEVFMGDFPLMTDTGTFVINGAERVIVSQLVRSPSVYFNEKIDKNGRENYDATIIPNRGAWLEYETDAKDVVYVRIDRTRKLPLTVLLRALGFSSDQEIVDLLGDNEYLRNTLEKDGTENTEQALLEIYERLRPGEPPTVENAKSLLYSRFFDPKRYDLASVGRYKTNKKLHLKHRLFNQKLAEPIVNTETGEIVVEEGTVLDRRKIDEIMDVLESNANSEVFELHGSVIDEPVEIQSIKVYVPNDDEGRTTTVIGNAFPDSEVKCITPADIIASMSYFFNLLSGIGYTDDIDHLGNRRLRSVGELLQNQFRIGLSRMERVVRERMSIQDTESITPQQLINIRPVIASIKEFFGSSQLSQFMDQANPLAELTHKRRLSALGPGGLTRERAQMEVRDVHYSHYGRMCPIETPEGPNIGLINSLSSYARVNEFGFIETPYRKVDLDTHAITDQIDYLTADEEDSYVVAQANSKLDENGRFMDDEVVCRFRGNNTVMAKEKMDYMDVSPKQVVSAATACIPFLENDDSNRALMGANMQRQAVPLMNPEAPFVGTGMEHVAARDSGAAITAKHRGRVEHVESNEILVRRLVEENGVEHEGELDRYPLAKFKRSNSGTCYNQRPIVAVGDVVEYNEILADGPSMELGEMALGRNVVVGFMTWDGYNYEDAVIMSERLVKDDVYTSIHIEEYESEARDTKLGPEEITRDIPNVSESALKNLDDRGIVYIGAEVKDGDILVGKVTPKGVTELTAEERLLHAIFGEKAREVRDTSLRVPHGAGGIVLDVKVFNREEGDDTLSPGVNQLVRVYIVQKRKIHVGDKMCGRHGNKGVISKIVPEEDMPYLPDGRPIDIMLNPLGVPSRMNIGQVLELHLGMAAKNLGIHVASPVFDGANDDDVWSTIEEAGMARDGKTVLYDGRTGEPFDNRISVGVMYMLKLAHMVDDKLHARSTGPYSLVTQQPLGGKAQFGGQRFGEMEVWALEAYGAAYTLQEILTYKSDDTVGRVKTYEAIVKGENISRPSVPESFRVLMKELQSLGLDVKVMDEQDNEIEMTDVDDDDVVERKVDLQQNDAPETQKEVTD

Compound | MIC [1] [µg/mL] | MIC [2] [µg/mL] | MIC [3] [µg/mL] | MIC [4] [µg/mL] | MIC [5] [µg/mL] | MIC [6] [µg/mL] | MIC [7] [µg/mL] | MIC [8] [µg/mL] | IC50 [9] [nM] | IC50 [10] [nM] | MIC [11] [µg/mL] | MIC [12] [µg/mL] | IC50 [13] [nM]
CCCCCCc1csc(C=C(C)C(=O)c2c(O)cc(C(C)CC/C=C/NC(=O)OC)oc2=O)c1C (mixture of isomers) [APY27, methyl (E)-5-(3-((E/Z)-3-(4-hexyl-3-methylthiophen-2-yl)-2-methylacryloyl)-4-hydroxy-2-oxo-2H-pyran-6-yl)hex-1-enylcarbamate] | 50 | 20 | 6 | > 50 | 2 | 3 | 10 | 0.3 | 10 | 100 | 3 | 6 | 1000
COC(=O)N/C=C/CCC(C)c1cc(O)c(C(=O)C(C)=Cc2ccc(CCC(C)C)s2)c(=O)o1 (mixture of isomers) [APY31, methyl (E)-5-(4-hydroxy-3-((E/Z)-3-(5-isopentylthiophen-2-yl)-2-methylacryloyl)-2-oxo-2H-pyran-6-yl)hex-1-enylcarbamate] | 6 | 6 | 2 | 10 | 0.8 | 6 | 3 | < 0.3 | 10 | 50 | 0.4 | 0.4 | 20
C=CCCc1ccc(C=C(C)C(=O)c2c(O)cc(C(C)CC/C=C/NC(=O)OC)oc2=O)s1 (mixture of isomers) [APY28, methyl (E)-5-(3-((E/Z)-3-(5-(but-3-enyl)thiophen-2-yl)-2-methylacryloyl)-4-hydroxy-2-oxo-2H-pyran-6-yl)hex-1-enylcarbamate] | 30 | 30 | 10 | 30 | 0.4 | 30 | 6 | 0.3 | 40 | 60 | 6 | 2 | 200
CCCCCCc1ccc(C=C(C)C(=O)c2c(O)cc(C(C)CC/C=C/NC(=O)OC)oc2=O)o1 (mixture of isomers) [APY17, methyl (E)-5-(3-((E/Z)-3-(5-hexylfuran-2-yl)-2-methylacryloyl)-4-hydroxy-2-oxo-2H-pyran-6-yl)hex-1-enylcarbamate] | 30 | 10 | 3 | 10 | 2 | 0.8 | 10 | 0.1 | 20 | 100 | 2 | 8 | 900
CCCCCCc1csc(C=C(C)C(=O)c2c(O)cc(C(C)CC/C=C/NC(=O)OC)oc2=O)c1 (mixture of isomers) [APY18, methyl (E)-5-(3-((E/Z)-3-(4-hexylthiophen-2-yl)-2-methylacryloyl)-4-hydroxy-2-oxo-2H-pyran-6-yl)hex-1-enylcarbamate] | 6 | 4 | 2 | 6 | 0.8 | 3 | 10 | 0.07 | 7 | 70 | 2 | 4 | 600
CCCCCCc1ccc(C=C(C)C(=O)c2c(O)cc(C(C)CC/C=C/NC(=O)OC)oc2=O)cc1 (mixture of isomers) [APY33, methyl (E)-5-(3-((E/Z)-3-(4-hexylphenyl)-2-methylacryloyl)-4-hydroxy-2-oxo-2H-pyran-6-yl)hex-1-enylcarbamate] | 6 | 20 | 2 | 6 | 0.4 | 3 | 6 | 0.3 | 8 | 10 | 2 | 2 | 400
COC(=O)N/C=C/CCC(C)c1cc(O)c(C(=O)C(C)=Cc2ccc(CCCC3CCCCC3)s2)c(=O)o1 (mixture of isomers) [APY32, methyl (E)-5-(3-((E/Z)-3-(5-(3-cyclohexylpropyl)thiophen-2-yl)-2-methylacryloyl)-4-hydroxy-2-oxo-2H-pyran-6-yl)hex-1-enylcarbamate] | 6 | > 40 | 2 | > 50 | 2 | 0.8 | 6 | 0.4 | 6 | 6 | 2 | > 40 | 2000
CCCCc1ccc2sc(C=C(C)C(=O)c3c(O)cc(C(C)CC/C=C/NC(=O)OC)oc3=O)cc2c1 (mixture of isomers) [APY26, methyl (E)-5-(3-((E/Z)-3-(5-butylbenzo[b]thiophen-2-yl)-2-methylacryloyl)-4-hydroxy-2-oxo-2H-pyran-6-yl)hex-1-enylcarbamate] | > 50 | > 40 | 6 | > 50 | 2 | 2 | 6 | 0.3 | 20 | 200 | 2 | > 40 | 1000
CCCCc1ccc(C=C(C)C(=O)c2c(O)cc(C(C)CC/C=C/NC(=O)OC)oc2=O)s1 (mixture of isomers) [APY16, methyl (E)-5-(3-((E/Z)-3-(5-butylthiophen-2-yl)-2-methylacryloyl)-4-hydroxy-2-oxo-2H-pyran-6-yl)hex-1-enylcarbamate] | 6 | 20 | 2 | 10 | 0.8 | 0.8 | 30 | 0.1 | 30 | 100 | 2 | 0.6 | 300
CCCCCCc1ccc(C=C(C)C(=O)c2c(O)cc(C(C)CC/C=C/NC(=O)OC)oc2=O)s1 (mixture of isomers) [APY15, methyl (E)-5-(3-((E/Z)-3-(5-hexylthiophen-2-yl)-2-methylacryloyl)-4-hydroxy-2-oxo-2H-pyran-6-yl)hex-1-enylcarbamate] | 3 | 6 | 0.8 | 3 | 0.4 | 0.4 | > 50 | 0.08 | 5 | 20 | 0.4 | 0.9 | 200
CCCCc1ccc2oc(C=C(C)C(=O)c3c(O)cc(C(C)CC/C=C/NC(=O)OC)oc3=O)cc2c1 (mixture of isomers) [APY25, methyl (E)-5-(3-((E/Z)-3-(5-butylbenzofuran-2-yl)-2-methylacryloyl)-4-hydroxy-2-oxo-2H-pyran-6-yl)hex-1-enylcarbamate] | 6 | > 40 | 2 | 30 | 0.8 | 3 | 6 | 0.3 | 10 | 70 | 0.2 | 3 | 600
CCCCCCc1ccc2oc(C=C(C)C(=O)c3c(O)cc(C(C)CC/C=C/NC(=O)OC)oc3=O)cc2c1 (mixture of isomers) [APY20, methyl (E)-5-(3-((E/Z)-3-(5-hexylbenzofuran-2-yl)-2-methylacryloyl)-4-hydroxy-2-oxo-2H-pyran-6-yl)hex-1-enylcarbamate] | > 50 | > 40 | 2 | > 50 | 0.8 | 0.8 | 6 | 0.3 | 4 | 20 | 2 | > 40 | 300
CCCCc1ccc(C=C(CC)C(=O)c2c(O)cc(C(C)CC/C=C/NC(=O)OC)oc2=O)s1 (mixture of isomers) [APY21, methyl (E)-5-(3-((E/Z)-2-((5-butylthiophen-2-yl)methylene)butanoyl)-4-hydroxy-2-oxo-2H-pyran-6-yl)hex-1-enylcarbamate] | 10 | 20 | 6 | > 50 | 2 | 3 | 10 | 0.3 | 40 | 500 | 3 | 2 | 300
